PubChem BioAssay (NCI)
Several values for one entry are separate records, joined by “and”; a condition that tells them apart may be missing. Equal values may be shown once.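 Cells were grown in 96-well plates and exposed to each compound for 48 hours at five concentrations; endpoints were interpolated linearly between bracketing concentrations, or set to the highest concentration if not reached. GI50 = concentration required for 50% inhibition of growth. TGI: total growth inhibition.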

Experiments:
Assay in all cases: growth of human tumour cells (NCI), 48 h
[1] = system: ACHN renal
[2] = system: COLO 205 colon
[3] = system: EKVX NSCLC
[4] = system: HS 578T breast
[5] = system: MDA-MB-435
[6] = system: NCI-H460 lung
[7] = system: OVCAR-4 ovarian
[8] = system: PC-3 prostate
[9] = system: SF-539 CNS
[10] = system: SK-MEL-28 melanoma

| SMILES | TGI [1] | TGI [2] | TGI [3] | GI50 [4] | TGI [4] | GI50 [5] | TGI [5] | TGI [6] | TGI [7] | GI50 [8] | TGI [8] | TGI [9] | TGI [10] | GI50 [1] | GI50 [2] | GI50 [3] | GI50 [6] | GI50 [7] | GI50 [9] | GI50 [10] |
| --- | --- | --- | --- | --- | --- | --- | --- | --- | --- | --- | --- | --- | --- | --- | --- | --- | --- | --- | --- | --- |
| O=c1c2ccccc2n2n1CC(O)C2 (stereo unspecified) | > 24.6 µM | > 100 µM | > 100 µM | > 100 µM | > 100 µM | > 100 µM | > 100 µM | > 100 µM | > 100 µM | > 100 µM | > 100 µM | > 100 µM | > 100 µM |  |  |  |  |  |  |  |
| C[C@@H]1CC[C@@H]2[C@@H]1[C@H](OC(=O)/C=C/c1ccccc1)[C@]1(C3CCCCC3)C[C@@H](NC(=O)CO)[C@@]2(C)O1 | 13.1 µM | 33.5 µM | 27.5 µM | 2.79 µM | 9.21 µM | 17.2 µM | 32.4 µM | 32.8 µM | 35.4 µM | 14.9 µM | 28.9 µM | 31.4 µM | 33 µM | 3.51 µM | 16.6 µM | 13.5 µM | 16.6 µM | 16 µM | 16.7 µM | 16.9 µM |
| CCN1C(NN)=NS(=O)(=O)c2ccccc21 | > 100 µM | > 100 µM | > 100 µM |  | > 100 µM |  | > 100 µM | > 100 µM | > 100 µM |  | > 100 µM | > 100 µM | > 100 µM |  |  |  |  |  |  |  |
| Cc1cnc(/C=N\NC(N)=S)c2cccc(N)c12 | > 30.9 µM | > 100 µM | > 100 µM and 53.6 µM | > 58 µM | > 100 µM | 3.9 µM | > 100 µM | > 37.7 µM | > 100 µM | > 22.7 µM | > 100 µM | 3.7 µM and > 27.7 µM | > 100 µM | 1.51 µM | 3.23 µM | 3.15 µM | 2.61 µM | 3.4 µM | 0.596 µM |  |
| CC(C)(C#N)c1cc(F)cc(C(=O)Nc2cc(Nc3ncccc3-c3ncnc4nc[nH]c34)ccc2F)c1 | > 10 µM | > 10 µM | > 10 µM | 1.41 µM | > 10 µM | 0.307 µM | > 10 µM | > 10 µM | > 10 µM | 7.67 µM | > 10 µM | 5.65 µM | > 10 µM | 1.85 µM | 0.109 µM | 6.55 µM | 2.51 µM | 4.71 µM | 0.527 µM | 0.0746 µM |
| O=C1c2ccccc2C(=Cc2ccccc2)c2ccccc21 | 13.4 µM | 5.14 µM | 37.9 µM | 3.9 µM | > 100 µM | 0.31 µM | 11.9 µM | 15 µM | 24.4 µM | 2.26 µM | 15.8 µM | 11.9 µM | 17.4 µM | 3.89 µM | 2.2 µM | 2.93 µM | 2.98 µM | 4.31 µM | 3.57 µM | 4.23 µM |
| COc1cc2nccc(Oc3ccc(NC(=O)C4(C(=O)Nc5ccc(F)cc5)CC4)cc3)c2cc1Oc1ccc(N)cn1 | 10.2 µM | 5.64 µM | > 100 µM | 1.65 µM | 7.39 µM | 1.83 µM | 6.1 µM | 18.7 µM | > 100 µM | 3.12 µM | > 100 µM | 4.84 µM | 32 µM | 2.76 µM | 2.13 µM | 3.21 µM | 3.26 µM | 3.73 µM | 0.854 µM | 2.56 µM |
| CC(=O)c1cc2c(cc1Nc1c3ccccc3nc3occ(Cl)c13)OCO2 | > 100 µM | > 37.9 µM | > 100 µM | 0.109 µM | > 69.6 µM | 0.0444 µM | 0.161 µM | > 40.1 µM | > 100 µM | 0.0856 µM | 3.71 µM | 0.0998 µM | > 100 µM | 0.46 µM | 0.391 µM | 0.181 µM | 0.27 µM | 82.9 µM | 0.0302 µM | 0.541 µM |
| O=S(=O)(O)c1ccc(-c2nnc(-c3ccccn3)nc2-c2ccc(S(=O)(=O)O)o2)o1 | > 100 µM | > 100 µM | > 100 µM |  | > 100 µM |  | > 100 µM | > 100 µM | > 100 µM |  | > 100 µM | > 100 µM | > 100 µM |  |  |  |  |  |  |  |
| COc1ccc2c(c1)C(=O)C(=O)c1cc(O)c(OC)c(OC)c1-2 | 1.59 µM and 3.38 µM | 3.54 µM and 3.74 µM | 2.09 µM and 1.68 µM | 2.79 µM | 2.78 µM and 8.57 µM | 0.291 µM | 0.272 µM and 0.807 µM | 9.97 µM and 3.16 µM | 1.59 µM and 2.9 µM | 1.93 µM | 2.48 µM and 3.34 µM | 3.35 µM | 1.67 µM and 3.58 µM | 1.97 µM | 1.89 µM | 0.457 µM | 1.64 µM | 1.56 µM |  | 1.88 µM |
